Data from US20110082130A1 (LIGAND PHARMACEUTICALS, INC., priority 2006, published 2011).

These compounds were tested against T1, chimeric human H3 receptor (Homo sapiens, UniProt Q9Y5N1) (assay: Chimeric human H3 receptor GTP binding assay (agonist-stimulated GTP-gamma35S binding, Example 7)). Conditions: Table I; P2 membranes of Sf9 cells, 1 μM histamine as agonist, Ki from IC50 by Cheng-Prusoff.
T1 construct: made in house; host or cells: Sf9 insect cells (baculovirus); P2 membrane preparation
T1 sequence (Q9Y5N1 with tags, fused parts or gaps): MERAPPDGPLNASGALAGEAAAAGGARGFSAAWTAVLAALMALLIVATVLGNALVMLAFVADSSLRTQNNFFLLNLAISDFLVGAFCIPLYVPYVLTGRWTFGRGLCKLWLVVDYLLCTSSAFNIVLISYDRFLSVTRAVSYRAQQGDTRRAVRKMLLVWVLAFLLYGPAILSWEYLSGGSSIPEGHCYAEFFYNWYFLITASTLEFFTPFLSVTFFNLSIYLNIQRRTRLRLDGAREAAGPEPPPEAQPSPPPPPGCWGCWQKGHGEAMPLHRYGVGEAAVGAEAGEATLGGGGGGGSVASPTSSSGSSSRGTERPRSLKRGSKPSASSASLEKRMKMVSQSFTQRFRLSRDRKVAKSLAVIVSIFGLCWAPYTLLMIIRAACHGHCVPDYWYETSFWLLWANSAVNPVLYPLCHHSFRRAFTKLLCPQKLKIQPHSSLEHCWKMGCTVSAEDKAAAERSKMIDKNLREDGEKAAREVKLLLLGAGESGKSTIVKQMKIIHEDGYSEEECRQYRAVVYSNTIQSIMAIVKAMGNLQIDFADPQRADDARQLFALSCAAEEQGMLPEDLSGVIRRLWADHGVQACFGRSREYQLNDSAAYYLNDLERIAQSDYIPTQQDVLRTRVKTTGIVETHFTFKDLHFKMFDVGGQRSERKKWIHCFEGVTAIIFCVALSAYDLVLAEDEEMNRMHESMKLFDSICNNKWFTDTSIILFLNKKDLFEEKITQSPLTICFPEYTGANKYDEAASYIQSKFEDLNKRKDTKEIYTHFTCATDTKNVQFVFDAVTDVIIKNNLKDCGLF
Type: biochemical
Outline: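 Sf9 membranes co-expressing chimeric human H3 receptor and heterotrimeric G-protein, 35 μg/tube, in pH 7.4 Tris buffer with 10 μM GDP. Test compounds (10^−10–10^−6 M) competed against 1 μM histamine, […] GTP-gamma35S, 60 min at room temperature. Filter-bound radioactivity counted; IC50 converted to Ki by Cheng-Prusoff. Agonism/inverse agonism tested without histamine (EC50).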

SMILES	Ki [nM]
CC(=O)c1ccc2c(c1)CCN(CC(=O)N1CCN(C3CCC3)CC1)C2c1ccccc1Cl (stereo not drawn) [Compound 64, 1-{1-(2-chlorophenyl)-2-[2-(4-cyclobutylpiperazin-1-yl)-2-oxoethyl]-1,2,3,4-tetrahydroisoquinolin-6-yl}ethanone]	< 1000
O=C(CN1CCn2ccnc2C1)N1CCN(C2CCC2)CC1 [Compound 83, 7-[2-(4-cyclobutylpiperazin-1-yl)-2-oxoethyl]-5,6,7,8-tetrahydroimidazo[1,2-a]pyrazine]	< 1000

Same assay, conditions: Table II "Ki", symbol *; assay of Example 7

SMILES	Ki [nM]
CCC(CC)Nc1ccc2c(n1)CCN(CC(=O)N1CCN(C3CCC3)CC1)C2 [Compound 662, 6-[2-(4-cyclobutylpiperazin-1-yl)-2-oxoethyl]-N-(1-ethylpropyl)-5,6,7,8-tetrahydro-1,6-naphthyridin-2-amine]	< 1000
COc1cc(F)c(-c2ccc3c(c2)CCN(CC(=O)N2CCN(C4CCC4)CC2)C3)cc1F [Compound 506, 2-[2-(4-cyclobutylpiperazin-1-yl)-2-oxoethyl]-6-(2,5-difluoro-4-methoxyphenyl)-1,2,3,4-tetrahydroisoquinoline]	< 1000
O=C(CN1CCc2cc(-c3ccc4ccccc4n3)ccc2C1)N1CCN(C2CCC2)CC1 [Compound 634, 2-{2-[2-(4-cyclobutylpiperazin-1-yl)-2-oxoethyl]-1,2,3,4-tetrahydroisoquinolin-6-yl}quinoline]	< 1000
CCOc1cccc(-c2ccc3c(c2)CCN(CC(=O)N2CCN(C4CCCC4)CC2)C3)c1 [Compound 483, 2-[2-(4-cyclopentylpiperazin-1-yl)-2-oxoethyl]-6-(3-ethoxyphenyl)-1,2,3,4-tetrahydroisoquinoline]	< 1000
CN(C)Cc1ccccc1-c1ccc2c(c1)CCN(CC(=O)N1CCN(C3CCC3)CC1)C2 [Compound 640, 1-(2-{2-[2-(4-cyclobutylpiperazin-1-yl)-2-oxoethyl]-1,2,3,4-tetrahydroisoquinolin-6-yl}phenyl)-N,N-dimethylmethanamine]	< 1000
CN(C)c1ccc(-c2ccc3c(c2)CCN(CC(=O)N2CCN(C4CCCC4)CC2)C3)cc1 [Compound 533, 4-{2-[2-(4-cyclopentylpiperazin-1-yl)-2-oxoethyl]-1,2,3,4-tetrahydroisoquinolin-6-yl}-N,N-dimethylaniline]	< 1000
COc1cc(-c2ccc3c(c2)CCN(CC(=O)N2CCN(C4CCCC4)CC2)C3)cc(OC)c1OC [Compound 517, 2-[2-(4-cyclopentylpiperazin-1-yl)-2-oxoethyl]-6-(3,4,5-trimethoxyphenyl)-1,2,3,4-tetrahydroisoquinoline]	< 1000
COc1ccc(-c2ccc3c(c2)CCN(CC(=O)N2CCN(C4CCC4)CC2)C3)cc1C [Compound 540, 2-[2-(4-cyclobutylpiperazin-1-yl)-2-oxoethyl]-6-(4-methoxy-3-methylphenyl)-1,2,3,4-tetrahydroisoquinoline]	< 1000

Same assay, conditions: Table II; "*" = Ki in assay of Example 7 less than 1 micromolar

SMILES	Ki [nM]
CC(O)c1ccc2c(c1)CCN(CC(=O)N1CCN(C3CCC3)CC1)C2 (stereo not drawn) [Compound 219, 1-{2-[2-(4-cyclobutylpiperazin-1-yl)-2-oxoethyl]-1,2,3,4-tetrahydroisoquinolin-6-yl}ethanol]	< 1000
O=C(CN1CCc2nc(C3CC3)ncc2C1)N1CCN(C2CCC2)CC1 [Compound 276, 6-[2-(4-cyclobutylpiperazin-1-yl)-2-oxoethyl]-2-cyclopropyl-5,6,7,8-tetrahydropyrido[4,3-d]pyrimidine]	< 1000
O=C(CN1CCc2cc(N3CCOCC3)nnc2C1)N1CCN(C2CCC2)CC1 [Compound 220, 7-[2-(4-cyclobutylpiperazin-1-yl)-2-oxoethyl]-3-morpholin-4-yl-5,6,7,8-tetrahydropyrido[3,4-c]pyridazine]	< 1000
CC1CN(C(=O)CN2CCc3nc(-c4ccncc4)sc3C2)CCN1C1CCC1 (stereo not drawn) [Compound 114, 5-[2-(4-cyclobutyl-3-methylpiperazin-1-yl)-2-oxoethyl]-2-pyridin-4-yl-4,5,6,7-tetrahydro[1,3]thiazolo [5,4-c]pyridine]	< 1000
O=C(CN1CCc2cc(C(=O)N3CCCC3)ccc2C1)N1CCN(C2CCC2)CC1 [Compound 89, 2-[2-(4-cyclobutylpiperazin-1-yl)-2-oxoethyl]-6-(pyrrolidin-1-ylcarbonyl)-1,2,3,4-tetrahydroisoquinoline]	< 1000
CC1CN(c2ccc3c(n2)CCN(CC(=O)N2CCN(C4CCC4)CC2)C3)CC(C)O1 (stereo not drawn) [Compound 182, 6-[2-(4-cyclobutylpiperazin-1-yl)-2-oxoethyl]-2-(2,6-dimethylmorpholin-4-yl)-5,6,7,8-tetrahydro-1,6-naphthyridine]	< 1000
O=C(CN1CCc2cc(-n3nccn3)ccc2C1)N1CCN(C2CCC2)CC1 [Compound 209, 2-[2-(4-cyclobutylpiperazin-1-yl)-2-oxoethyl]-6-(2H-1,2,3-triazol-2-yl)-1,2,3,4-tetrahydroisoquinoline]	< 1000
CC(O)Cc1ccc2c(c1)CCN(CC(=O)N1CCN(C3CCC3)CC1)C2 (stereo not drawn) [Compound 250, 1-{2-[2-(4-cyclobutylpiperazin-1-yl)-2-oxoethyl]-1,2,3,4-tetrahydroisoquinolin-6-yl}propan-2-ol]	< 1000
O=C(CN1CCc2nc(-c3cccnn3)sc2C1)N1CCN(C2CCC2)CC1 [Compound 279, 5-[2-(4-cyclobutylpiperazin-1-yl)-2-oxoethyl]-2-pyridazin-3-yl-4,5,6,7-tetrahydro[1,3]thiazolo [5,4-c]pyridine]	< 1000
N#Cc1ccc(-n2cc3c(n2)CCN(CC(=O)N2CCN(C4CCC4)CC2)C3)nn1 [Compound 203, 6-{5-[2-(4-cyclobutylpiperazin-1-yl)-2-oxoethyl]-4,5,6,7-tetrahydro-2H-pyrazolo[4,3-c]pyridin-2-yl}pyridazine-3-carbonitrile]	< 1000
O=C(CN1CCc2nc(-c3ccncc3)ncc2C1)N1CCN(C2CCCC2)CC1 [Compound 138, 6-[2-(4-cyclopentylpiperazin-1-yl)-2-oxoethyl]-2-pyridin-4-yl-5,6,7,8-tetrahydropyrido[4,3-d]pyrimidine]	< 1000
CC1(C)CN(CC(=O)N2CCN(C3CCC3)CC2)Cc2cnc(N3CCOCC3)nc21 [Compound 239, 6-[2-(4-cyclobutylpiperazin-1-yl)-2-oxoethyl]-8,8-dimethyl-2-morpholin-4-yl-5,6,7,8-tetrahydropyrido[4,3-d]pyrimidine]	< 1000

Same assay, conditions: Table II; assay of Example 7

SMILES	Ki [nM]
N#CC1CCN(c2ncc3c(n2)CCN(CC(=O)N2CCN(C4CCC4)CC2)C3)CC1 [Compound 690, 1-{6-[2-(4-cyclobutylpiperazin-1-yl)-2-oxoethyl]-5,6,7,8-tetrahydropyrido[4,3-d]pyrimidin-2-yl}piperidine-4-carbonitrile]	< 1000
O=C(CN1CCc2nc(N3CCCC(C(F)(F)F)C3)ccc2C1)N1CCN(C2CCC2)CC1 (stereo not drawn) [Compound 682, 6-[2-(4-cyclobutylpiperazin-1-yl)-2-oxoethyl]-2-[3-(trifluoromethyl)piperidin-1-yl]-5,6,7,8-tetrahydro-1,6-naphthyridine]	< 1000

Same assay, conditions: assay of Example 7; "*" in Ki of Table II

SMILES	Ki [nM]
CCc1ccc(-c2nc3c(s2)CN(CC(=O)N2CCN(C4CCC4)CC2)CC3)cc1 [Compound 311, 5-[2-(4-cyclobutylpiperazin-1-yl)-2-oxoethyl]-2-(4-ethylphenyl)-4,5,6,7-tetrahydro[1,3]thiazolo [5,4-c]pyridine]	< 1000
COc1cc(F)c(-c2nc3c(s2)CN(CC(=O)N2CCN(C4CCC4)CC2)CC3)cc1F [Compound 323, 5-[2-(4-cyclobutylpiperazin-1-yl)-2-oxoethyl]-2-(2,5-difluoro-4-methoxyphenyl)-4,5,6,7-tetrahydro[1,3]thiazolo [5,4-c]pyridine]	< 1000
O=C(CN1CCc2nc(-c3ccc(Oc4ccccc4)cc3)sc2C1)N1CCN(C2CCC2)CC1 [Compound 318, 5-[2-(4-cyclobutylpiperazin-1-yl)-2-oxoethyl]-2-(4-phenoxyphenyl)-4,5,6,7-tetrahydro[1,3]thiazolo [5,4-c]pyridine]	< 1000
O=C(CN1CCc2nc(-c3cccc(OC(F)(F)F)c3)sc2C1)N1CCN(C2CCC2)CC1 [Compound 319, 5-[2-(4-cyclobutylpiperazin-1-yl)-2-oxoethyl]-2-[3-(trifluoromethoxy)phenyl]-4,5,6,7-tetrahydro[1,3]thiazolo [5,4-c]pyridine]	< 1000
O=C(CN1CCc2nc(-c3cccc4c3oc3ccccc34)sc2C1)N1CCN(C2CCC2)CC1 [Compound 342, 5-[2-(4-cyclobutylpiperazin-1-yl)-2-oxoethyl]-2-dibenzo[b,d]furan-4-yl-4,5,6,7-tetrahydro[1,3]thiazolo [5,4-c]pyridine]	< 1000
O=C(CN1CCc2nc(-c3ccccc3Cl)sc2C1)N1CCN(C2CCC2)CC1 [Compound 357, 2-(2-chlorophenyl)-5-[2-(4-cyclobutylpiperazin-1-yl)-2-oxoethyl]-4,5,6,7-tetrahydro[1,3]thiazolo [5,4-c]pyridine]	< 1000
O=C(CN1CCc2nc(-c3ccc4c(c3)OCO4)sc2C1)N1CCN(C2CCC2)CC1 [Compound 328, 2-(1,3-benzodioxol-5-yl)-5-[2-(4-cyclobutylpiperazin-1-yl)-2-oxoethyl]-4,5,6,7-tetrahydro[1,3]thiazolo [5,4-c]pyridine]	< 1000
O=C(CN1CCc2cc(-c3ccc4c(c3)OCO4)ccc2C1)N1CCN(C2CCCC2)CC1 [Compound 378, 6-(1,3-benzodioxol-5-yl)-2-[2-(4-cyclopentylpiperazin-1-yl)-2-oxoethyl]-1,2,3,4-tetrahydroisoquinoline]	< 1000
CCC(C)N1CCN(C(=O)CN2CCc3cc(-c4cncnc4)ccc3C2)CC1 (stereo not drawn) [Compound 397, 2-[2-(4-sec-butylpiperazin-1-yl)-2-oxoethyl]-6-pyrimidin-5-yl-1,2,3,4-tetrahydroisoquinoline]	< 1000
